As usually defined, the Kd is the free concentration of one partner at which half of the binding sites on the other are occupied at equilibrium, for simple one-to-one binding. Usually koff stands for a measure of how fast the partners let go of each other. A higher koff goes with fast dissociation.

SMILES strings stand for the structures.

The target in assay [1] is T1, FKBP12 (Homo sapiens (Human), UniProt P62942). Kind of assay: AlphaLISA FKBP12 binding: inhibition of binding of biotinylated FK506 to FLAG tagged FKBP12. The following applies: read-out: Binding affinity to FKBP12 (by displacement of FK506). An excerpt: The binding of compounds of the invention to FKBP12 can be determined using the following protocol.
T1 sequence (P62942 whole entry): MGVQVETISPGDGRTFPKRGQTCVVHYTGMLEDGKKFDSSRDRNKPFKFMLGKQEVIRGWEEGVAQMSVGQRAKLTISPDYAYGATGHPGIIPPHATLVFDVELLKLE
This protocol utilizes Perkin Elmers AlphaLISA technology platform to detect FKBP binders by measuring the inhibition of binding of biotinylated FK506 to FLAG tagged FKBP12.
10×TBST Buffer (Boston BioProducts IBB-181), Biotinylated FK506 (in-house), FLAG tagged FKBP (in-house); anti-FLAG Donor beads (Perkin Elmer AS103) and Streptavidin Acceptor beads (Perkin Elmer AL125); Compounds in DMSO (in-house), FK506.
Experimental Protocol/Description of Assay: Add 20 uL of 12.5 nM FKBP-FLAG working stock to each well of the 96-well plate. Add 1 uL of test compound (100% DMSO) to each well of the plate using the Janus MTD head and P20 tips (except control wells). Add 1 uL of DMSO to negative control wells and 1 uL of 50 uM FK506 solution to positive control wells. In the dark, add 20 uL of combined Donor/Acceptor beads to each well. Incubate in the dark for 30 minutes at room temperature. In the dark, add 10 uL of 5 nM biotinylated FK506 working stock to each well. Incubate in the dark for 60 minutes at room temperature. Protect plate from light until reading on Biotek Synergy2 Plate Reader; Alphalisa 96-well protocol (680 excitation/615 emission).
For orientation: Bead proximity is the source of the signal in Alpha formats.

For assay [2], the target named is CEP25011.4 (residues 2134-2231) (Homo sapiens (Human), UniProt P62942+Q9BV73). Kind of assay: ITC binding of FKBP12-compound binary complex to CEP250. How it is done:
(§1) This protocol utilizes Isothermal Titration Calorimetry (ITC) to directly measure the heat change associated with binding of FKBP12-Compound 2 and FKBP12-Compound 6 binary complexes to CEP250. Measurement of the heat change allows accurate determination of association constants (Ka), reaction stoichiometry (N), and the change in binding enthalpy (ΔH).
(§2) Compound 2 and Compound 6 in 100% DMSO (in-house), Protein Buffer (10 mM HEPES, pH 7.5, 75 mM NaCl, 0.5 mM TCEP), assay buffer (protein buffer+1% DMSO), FKBP12 (in-house), CEP25029.4 (residues 1982-2231) and CEP25011.4 (residues 2134-2231) (in-house).
(§3) MicroCal™ ITC200 (GE Healthcare) Experimental Protocol: FKBP12 stock solution was diluted to 10 μM in assay buffer (1% DMSO final). Compound was added to FKBP12 to 20 μM (1% DMSO final), and binary complex was filled into the reaction cell of the ITC device after 5-10 min pre-incubation time. CEP250 protein stocks were diluted to 50 μM in assay buffer and supplemented with 20 μM compound (1% DMSO final) before being filled into the injection syringe. A control experiment in the absence of compound was also run to determine the heat associated with operational artifacts and the dilution of titrant as it was injected from the syringe into the reaction cell.

The target of assay [3] is CEP25029.4 (residues 1982-2231) (Homo sapiens (Human), UniProt P62942+Q9BV73). The description is as above. How it is done: as §1, §2, §3
Sequence of CEP25029.4 (residues 1982-2231) (Q9BV73 1982-2231): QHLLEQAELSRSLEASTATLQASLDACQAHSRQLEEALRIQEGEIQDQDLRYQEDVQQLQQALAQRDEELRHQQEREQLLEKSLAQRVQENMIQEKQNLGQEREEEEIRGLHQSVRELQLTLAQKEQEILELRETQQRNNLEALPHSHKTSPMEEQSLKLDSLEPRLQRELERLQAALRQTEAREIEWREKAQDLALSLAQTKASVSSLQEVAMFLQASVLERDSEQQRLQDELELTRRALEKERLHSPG
Sequence of CEP25029.4 (residues 1982-2231) (P62942 whole entry, the tested form may be a part): as the sequence (P62942 whole entry) above
Assay [4] addresses T1, FKBP12. The experiment in a line: SPR binding of compound (analyte) to immobilized FKBP12 (Example 7). The following applies: 25° C., 12×HIS tagged FKBP12 immobilized on NTA chip; read-out: SPR affinity to FKBP12: KD. How it is done: This protocol utilizes Surface Plasmon Resonance (SPR) as a method to determine kinetics (KD, Ka, Kd) for the binding of compound (analyte) to immobilized FKBP12 (ligand).
Compound in 100% DMSO (in-house), 10×HBS-P+ buffer (GE Healthcare BR-1006-71), Assay buffer (1×HBS-P+ buffer, 1% DMSO), 12×HIS tagged FKBP12 (in-house).
(§4) Experiments are performed at 25° C. Stock solution of 12×HIS tagged FKBP12 is diluted to 100 nM in assay buffer (1% DMSO final). Approximately 500-600 RU of FKBP12 is immobilized on one of two flow cells of an activated NTA chip. The second flow cell is not activated as a reference for non-specific interaction of the analyte to the sensor chip. Various concentrations of compound (1 nM-1 μM range), serially diluted into the same assay buffer (1% DMSO final), are injected onto the FKBP12 surface and reference surface at a flow rate of 10 μl/min. The surface is regenerated between analyte injections with 350 mM EDTA.
(§5) The BiaEvaluation software program is used for data fitting. All data is reference subtracted against both the reference flow cell and a buffer injection. For kinetic analyses, data is locally fit to a 1:1 interaction model.
A general note: SPR reads the build-up and loss of mass on a sensor chip optically.

The target in assay [5] is T1, FKBP12. The experiment in a line: SPR kinetics of Compound 2 and Compound 6 binding to immobilized FKBP12 (Example 8). The following applies: compound to immobilized FKBP12, 25° C. How it is done:
This protocol utilizes Surface Plasmon Resonance (SPR) as a method to determine kinetics (KD, Ka, Kd) for the binding of Compound 2 and Compound 6 (analyte) to immobilized FKBP12 (ligand).
Compound 2 and Compound 6 in 100% DMSO (in-house), 10×HBS-P+ buffer (GE Healthcare BR-1006-71), Assay buffer (1×HBS-P+ buffer, 1% DMSO), 12×HIS tagged FKBP12 (in-house).
as §4, with “Compound 2 or Compound 6” for “compound”
as §5

Sequence of CEP25011.4 (residues 2134-2231) (Q9BV73 2134-2231): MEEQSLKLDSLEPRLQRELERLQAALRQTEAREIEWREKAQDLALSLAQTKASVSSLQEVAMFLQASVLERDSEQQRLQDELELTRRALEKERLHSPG
Sequence of CEP25011.4 (residues 2134-2231) (P62942 whole entry, the tested form may be a part): as the sequence (P62942 whole entry) above

As to `CC[C@H](Cc1ccccc1)[C@@H]1/C=C/C/C=C/C[C@@H](C)[C@H](O)[C@@H](C)[C@@H]2CC[C@@H](C)C(=O)C(O)(O2)C(=O)N2CCCC[C@H]2C(=O)O1` [Compound 2], the IC50 on FKBP12 [1] was determined as 0.0015 µM. Besides, the Kd in assay [2] stood at 0.07 µM; in assay [3] it was 0.19 µM; on FKBP12 [4], 0.0126 µM; on FKBP12 [5] it was 0.0132 µM. In addition, the ΔH in assay [2] (ITC, FKBP12 10 μM in cell, CEP25011.4 68 μM in syringe, ligand 20 μM, 298 K) was -49.37 kJ/mol; in assay [3] (ITC, FKBP12 10 μM in cell, CEP25029.4 118 μM in syringe, ligand 20 μM, 298 K) it was -52.21 kJ/mol. Besides, the ΔG in assay [2] (ITC, FKBP12 10 μM, CEP25011.4 68 μM, ligand 20 μM, 298 K, ΔG = −RT ln Ka) is -40.75 kJ/mol; in assay [3] (ITC, FKBP12 10 μM, CEP25029.4 118 μM, ligand 20 μM, 298 K, ΔG = −RT ln Ka), -38.41 kJ/mol. Besides, the “−T*ΔS” value was 8.62 kJ/mol in assay [2] (ITC, FKBP12 10 μM, CEP25011.4 68 μM, ligand 20 μM, 298 K, −TΔS = ΔG − ΔH) and 13.80 kJ/mol in assay [3] (ITC, FKBP12 10 μM, CEP25029.4 118 μM, ligand 20 μM, 298 K, −TΔS = ΔG − ΔH). This compound showed an off-rate constant (koff) on FKBP12 [5] of 0.000594 s⁻¹. The kon at FKBP12 [5] (read-out: Ka) amounted to 45000 M⁻¹ s⁻¹.

Values taken from patent US11059830B2, “Compounds that participate in cooperative binding and uses thereof” (Revolution Medicines, Inc., priority 2015, dated 2021).
